Data published in article PMC4977651, “Molecular features of biguanides required for targeting of mitochondrial respiratory complex I and activation of AMP-kinase” (BMC Biology, 2016).
Several values for one entry are separate records, joined by “and”; a condition that tells them apart may be missing. Identical values can stand only once.

Assays:
[1] = test system: mouse liver mitochondria; test: ADP-stimulated rotenone-sensitive OCR in isolated mouse liver mitochondria; type: biochemical; parameters: rotenone sensitive OCR after ADP stimulation, individual replicates / rotenone sensitive OCR after ADP stimulation, average: unit not given here; conditions: for rotenone sensitive OCR after ADP stimulation, % of control, average / rotenone sensitive OCR after ADP stimulation, average: average of replicates; for rotenone sensitive OCR after ADP stimulation, % of control, individual replicates / rotenone sensitive OCR after ADP stimulation, individual replicates: replicate 1-5
Description: (§1) Complex I and mitochondrial membranes were prepared from Bos taurus (bovine) heart. Intact mitochondria were isolated from rat liver and mouse heart and liver. Membranes were prepared from mouse heart mitochondria by 5 s bursts of sonication at 4 °C and collected by centrifugation (75,000 × g, 1 h).
(§2) Isolated mitochondria were monitored using a Seahorse XF96 extracellular flux analyzer at 32 °C. Mouse heart mitochondria, and mouse and rat liver mitochondria were plated into XF96 plates at 4 and 16–20 μg per well, respectively, in 220 mM mannitol, 70 mM sucrose, 10 mM KH2PO4, 5 mM MgCl2, 1 mM EGTA, 0.2 % fatty acid-free BSA, and 2 mM HEPES (pH 7.4 at 37 °C) with 10 mM glutamate and 10 mM malate and adhered by centrifugation (2000 × g, 20 min, 4 °C). The medium was supplemented with a further 5 mM glutamate and 5 mM malate and the mitochondria incubated for 15 min. Then two baseline readings were taken before the biguanides were added at IC50/5. Biguanides were allowed to accumulate for 15–20 min before respiration was uncoupled by the addition of 4 mM ADP. Rotenone (2 μM) was added at the end of the experiment. Data from wells with failed port injections were excluded from the analyses. The RCR values (state III versus state IV respiration) were 3.4, 4.8, and 4.6 for mouse heart, rat liver, and mouse liver, respectively.

[2] = test system: 143B cells; test: Rotenone-sensitive oxygen consumption rate in intact 143B cells; type: cell-based, human; conditions: 143B cells, biguanide at IC50/10; for rotenone sensitive OCR after 6 hours of biguanide exposure, average: OCR normalized to OCR immediately prior to biguanide addition
Description: (§3) 143B (CRL-8303 from ATCC), HepG2 (85011430 from The Health Protection Agency), and MDBK (CCL-22 from ATCC) cells were grown on Dulbecco’s modified Eagle’s medium (DMEM) supplemented with 10 % fetal bovine serum (FBS, Thermo Fisher Scientific) at 37 °C in 5 % CO2. All cells were confirmed as negative for mycoplasma.
(§4) Oxygen consumption rates (OCRs) were measured using a Seahorse XF96 extracellular flux analyzer at 37 °C. For intact cell measurements, 1.4 × 10^4 143B, HepG2, or MDBK cells were plated (per well) in DMEM containing 10 % FBS into Seahorse Bioscience Inc. XF96 plates and incubated for ~12 h at 37 °C in 5 % CO2. Then, the medium was exchanged for assay buffer containing DMEM, 4.5 g L^−1 glucose, 1 mM pyruvate, 32 mM NaCl, 2 mM GlutaMAX, 15 mg L^−1 phenol red, and 20 mM HEPES (pH 7.4 at 37 °C) and the cells placed in a CO2-free incubator at 37 °C for 30 min. Basal oxygen consumption rates were established before the addition of biguanides at one-tenth of their IC50 (IC50/10), and followed for ~ 6 h before the addition of rotenone (2 μM).
(§5) Rotenone-sensitive OCRs were calculated by subtracting the rotenone-insensitive rates (determined at the end of the experiment). OCRs were normalized by dividing by the OCR recorded immediately prior to the addition of biguanide. For rate of uptake calculations, the OCRs at time points after biguanide addition were divided by the OCRs at the same time points in control experiments. Data from wells with failed port injections were excluded from the analyses. The respiratory control ratio (RCR) values (state III versus state IV respiration) were ~11 and ~6 for permeabilized MDBK and 143B cells, respectively.

[3] = test system: acetyl-coA carboxylase (phospho-Ser79); test: AMPK activation, western blot of phospho-acetyl-coA carboxylase in MDBK cells; type: cell-based, Bos taurus; conditions: for ACC, average normalised to control: Averages of experiments 1-3, 18 hours; for p-ACC: band intensity
Description: MDBK cells were seeded at 1 × 10^6 cells per 6 cm dish in DMEM containing 10 % FBS. […] After 18 h cells were harvested by a rapid lysis procedure: cells were rinsed with PBS, then lysed using ice-cold buffer containing 50 mM HEPES, 1 mM EDTA, 10 % glycerol, 50 mM NaF, 5 mM sodium pyrophosphate, 1 % Triton-X100, 1 mM dithiothreitol (DTT), and a protease inhibitor cocktail (Roche). The cell lysate was centrifuged at 14,000 × g for 20 min at 4 °C and the protein concentration of the supernatant determined by bicinchoninic acid assay. The lysate was analyzed using Novex 3–12 % bis-Tris gels run in 3-(N-morpholino)propanesulfonic acid (MOPS) buffer (20 μg of protein per lane) followed by transfer to low fluorescence polyvinylidene fluoride membranes by wet transfer. Primary rabbit antibodies for AMPK-β (57C12), AMPK-α (phospho-Thr172) (40H9), and acetyl-coA carboxylase (phospho-Ser79) (Cell Signaling Technology) were incubated overnight with the membrane (1:1000 dilution) in Odyssey blocking buffer at 4 °C. A fluorescent secondary antibody was used (IRDYE800CW from LI-COR Biosciences, 1:20,000 dilution) with a LI-COR Odyssey imaging system.

[4] = test system: mouse heart mitochondria; test: ADP-stimulated rotenone-sensitive OCR in isolated mouse heart mitochondria; type: biochemical; parameters: rotenone sensitive OCR after ADP stimulation, individual replicates / rotenone sensitive OCR after ADP stimulation, average / rotenone sensitive OCR after 15 mins, average: unit not given here; conditions: for rotenone sensitive OCR after ADP stimulation, % of control, average / rotenone sensitive OCR after ADP stimulation, average: average of replicates; for rotenone sensitive OCR after ADP stimulation, % of control, individual replicates: replicate 1-11; for rotenone sensitive OCR after ADP stimulation, individual replicates: replicate 1-12
Description: as §1
as §2, with “Biguanides were allowed to accumulate for 15–20 min before respiration was uncoupled by the addition of 4 mM ADP.” left out

[5] = test system: HepG2 cells; test: Rotenone-sensitive oxygen consumption rate in intact HepG2 cells; type: cell-based, human; conditions: HEPG2 cells, biguanide at IC50/10; for rotenone sensitive OCR after 6 hours of biguanide exposure, average: OCR normalized to OCR immediately prior to biguanide addition
Description: as §3, §4, §5

Structure (SMILES) | rotenone sensitive OCR after ADP stimulation, % of control, average [1] | rotenone sensitive OCR after ADP stimulation, average [1] | rotenone sensitive OCR after ADP stimulation, % of control, individual replicates [1] | rotenone sensitive OCR after ADP stimulation, individual replicates [1] | rotenone sensitive OCR after 6 hours of biguanide exposure, % control, average [2] | rotenone sensitive OCR after 6 hours of biguanide exposure, average [2] | ACC, average normalised to control [3] | p-ACC / AMPK beta ([3]; Experiment 1, 18 hours) | p-ACC / AMPK beta normalised to control ([3]; Experiment 1, 18 hours) | p-ACC ([3]; Experiment 1, 18 hours) | p-ACC / AMPK beta ([3]; Experiment 2, 18 hours) | p-ACC / AMPK beta normalised to control ([3]; Experiment 2, 18 hours) | p-ACC ([3]; Experiment 2, 18 hours) | p-ACC / AMPK beta ([3]; Experiment 3, 18 hours) | p-ACC / AMPK beta normalised to control ([3]; Experiment 3, 18 hours) | p-ACC ([3]; Experiment 3, 18 hours) | rotenone sensitive OCR after ADP stimulation, % of control, average [4] | rotenone sensitive OCR after ADP stimulation, average [4] | rotenone sensitive OCR after ADP stimulation, % of control, individual replicates [4] | rotenone sensitive OCR after ADP stimulation, individual replicates [4] | also measured
[H]/N=C(\N/C(=N/[H])Nc1ccc(Cl)cc1)NC(C)C [proguanil, reference compound] | 89.71 % of control | 31.13 | 103.28 % of control and 81.19 % of control and 80.15 % of control and 94.21 % of control | 35.84 and 28.17 and 27.81 and 32.69 | 94.32 % control | 110.56 | 1.76 | 0.34 | 1.73 | 161 | 0.32 | 1.97 | 112 | 0.47 | 1.56 | 91.3 | 99.28 % of control | 240.45 | 98.46 % of control and 125.69 % of control and 95.82 % of control and 99.56 % of control and 95.47 % of control and 84.72 % of control and 105.21 % of control and 89.32 % of control | 238.46 and 304.41 and 232.07 and 241.13 and 231.22 and 205.20 and 254.80 and 216.32 | rotenone sensitive OCR after 6 hours of biguanide exposure, % control, average [5]: 93.06 % control; rotenone sensitive OCR after 6 hours of biguanide exposure, average [5]: 95.98
[H]/N=C(/N)N/C(=N/[H])NCCc1ccccc1 [phenformin, reference compound] | 29.95 % of control | 10.39 | 29.69 % of control and 34.49 % of control and 19.77 % of control and 35.85 % of control | 10.30 and 11.97 and 6.86 and 12.44 | 9.47 % control | 11.10 | 7.37 | 1.27 | 6.56 | 586 | 1.60 | 9.93 | 598 | 1.68 | 5.62 | 404 | 30.06 % of control | 73.69 | 34.41 % of control and 27.92 % of control and 37.45 % of control and 23.80 % of control and 31.47 % of control and 29.88 % of control and 25.27 % of control and 30.29 % of control | 84.35 and 68.44 and 91.80 and 58.33 and 77.13 and 73.26 and 61.95 and 74.26 | rotenone sensitive OCR after 15 mins, average ([4]; ADP and phenformin added simultaneously, n = 8): 418.601; rotenone sensitive OCR after 15 mins, % control (no phenformin) ([4]; ADP and phenformin added simultaneously, n = 8 with phenformin, n = 6 control): 85 ± 10 % control and 85.2397 % control; oxygen consumption, % of the control value ([4]; phenformin at IC50/5 accumulated in the absence of ADP before ADP stimulation): 30%; rotenone sensitive OCR after 6 hours of biguanide exposure, % control, average [5]: 1.73 % control; rotenone sensitive OCR after 6 hours of biguanide exposure, average [5]: 1.79
